According to PubChem BioAssay AID2060894 (Molecular Pharmacology Branch, DTP, NCI, 2025):
One block for each molecule: values may come before it.

Tested on: K12877-001-R-J1-PDC complex spheroid viability
Experiment: Anticancer human tumor K12877-001-R-J1-PDC patient-derived lung adenocarcinoma cell line growth inhibition [RAS]
Conditions: for IC50: curve of first compound; for viability, T/C: stronger effect = lower value
Summary of the method: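 Tumour cells grown as complex spheroids with HUVEC endothelial cells and mesenchymal stem cells, treated with RAS pathway inhibitor combinations. Each agent spans half-log steps from near clinical Cmax, or 10 microM where Cmax is unknown.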

[1] = second compound 0.00316 µM, first compound 0.0316 µM
[2] = second compound 0.00316 µM, first compound 0.1 µM
[3] = second compound 0.00316 µM, first compound 0.316 µM
[4] = second compound 0.00316 µM, first compound 1 µM
[5] = second compound 0.00316 µM, first compound 3.16 µM
[6] = second compound 0.00316 µM, first compound 10 µM
[7] = second compound 0.01 µM, first compound 0.0316 µM
[8] = second compound 0.01 µM, first compound 0.1 µM
[9] = second compound 0.01 µM, first compound 0.316 µM
[10] = second compound 0.01 µM, first compound 1 µM
[11] = second compound 0.01 µM, first compound 3.16 µM
[12] = second compound 0.01 µM, first compound 10 µM
[13] = second compound 0.0316 µM, first compound 0.0316 µM
[14] = second compound 0.0316 µM, first compound 0.1 µM
[15] = second compound 0.0316 µM, first compound 0.316 µM
[16] = second compound 0.0316 µM, first compound 1 µM
[17] = second compound 0.0316 µM, first compound 3.16 µM
[18] = second compound 0.0316 µM, first compound 10 µM
[19] = second compound 0.1 µM, first compound 0.0316 µM
[20] = second compound 0.1 µM, first compound 0.1 µM
[21] = second compound 0.1 µM, first compound 0.316 µM
[22] = second compound 0.1 µM, first compound 1 µM
[23] = second compound 0.1 µM, first compound 3.16 µM
[24] = second compound 0.1 µM, first compound 10 µM
[25] = second compound 0.316 µM, first compound 0.0316 µM
[26] = second compound 0.316 µM, first compound 0.1 µM
[27] = second compound 0.316 µM, first compound 0.316 µM
[28] = second compound 0.316 µM, first compound 1 µM
[29] = second compound 0.316 µM, first compound 3.16 µM
[30] = second compound 0.316 µM, first compound 10 µM
[31] = second compound 1 µM, first compound 0.0316 µM
[32] = second compound 1 µM, first compound 0.1 µM
[33] = second compound 1 µM, first compound 0.316 µM
[34] = second compound 1 µM, first compound 1 µM
[35] = second compound 1 µM, first compound 3.16 µM
[36] = second compound 1 µM, first compound 10 µM
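Further: spheroids exposed to agents for one week before readout.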

Structure (SMILES): CC1(O)CCCC1n1c(=O)c(C(F)F)cc2cnc(NC3CCN(S(C)(=O)=O)CC3)nc21 (stereo not given) + C=CC(=O)N1CCN(c2nc(OCC3CCCN3C)nc3c(F)c(-c4nc(N)cc(C)c4C(F)(F)F)c(Cl)cc23)C(C)C1
IC50 (second compound 0.00316 µM): 4030 nM
IC50 (second compound 0.01 µM): 1190 nM
IC50 (second compound 0.0316 µM): 1640 nM
IC50 (second compound 0.1 µM): 1290 nM
IC50 (second compound 0.316 µM): 710 nM
IC50 (second compound 1 µM): 745 nM
viability, T/C [1]: 105%
viability, T/C [2]: 79.9%
viability, T/C [3]: 68.2%
viability, T/C [4]: 64%
viability, T/C [5]: 71.9%
viability, T/C [6]: 2.13%
viability, T/C [7]: 96.1%
viability, T/C [8]: 75.3%
viability, T/C [9]: 49.5%
viability, T/C [10]: 68.7%
viability, T/C [11]: 34.4%
viability, T/C [12]: 2.51%
viability, T/C [13]: 88.1%
viability, T/C [14]: 84.9%
viability, T/C [15]: 56.4%
viability, T/C [16]: 63.1%
viability, T/C [17]: 43.9%
viability, T/C [18]: 2.83%
viability, T/C [19]: 94.5%
viability, T/C [20]: 78.7%
viability, T/C [21]: 59.2%
viability, T/C [22]: 53.1%
viability, T/C [23]: 48.4%
viability, T/C [24]: 2.13%
viability, T/C [25]: 102%
viability, T/C [26]: 71.1%
viability, T/C [27]: 58.7%
viability, T/C [28]: 45.3%
viability, T/C [29]: 41.2%
viability, T/C [30]: 2.43%
viability, T/C [31]: 95%
viability, T/C [32]: 80.7%
viability, T/C [33]: 43.7%
viability, T/C [34]: 60.7%
viability, T/C [35]: 42.2%
viability, T/C [36]: 2.22%

Structure (SMILES): CCC(CC)c1cc(NC2CCC(N)C2)n2nccc2n1 (stereo not given) + C=CC(=O)N1CCN(c2nc(OCC3CCCN3C)nc3c(F)c(-c4nc(N)cc(C)c4C(F)(F)F)c(Cl)cc23)C(C)C1
IC50 (second compound 0.00316 µM): 1690 nM
IC50 (second compound 0.01 µM): 1430 nM
IC50 (second compound 0.0316 µM): 1580 nM
IC50 (second compound 0.1 µM): 1400 nM
IC50 (second compound 0.316 µM): 1480 nM
IC50 (second compound 1 µM): 1440 nM
viability, T/C [1]: 97%
viability, T/C [2]: 94.7%
viability, T/C [3]: 98%
viability, T/C [4]: 89.6%
viability, T/C [5]: 2.45%
viability, T/C [6]: 0.94%
viability, T/C [7]: 91.2%
viability, T/C [8]: 99.4%
viability, T/C [9]: 93.2%
viability, T/C [10]: 71.3%
viability, T/C [11]: 2.11%
viability, T/C [12]: 0.91%
viability, T/C [13]: 99.3%
viability, T/C [14]: 95.7%
viability, T/C [15]: 86.2%
viability, T/C [16]: 81.5%
viability, T/C [17]: 2.25%
viability, T/C [18]: 1.53%
viability, T/C [19]: 85.2%
viability, T/C [20]: 78.3%
viability, T/C [21]: 83.4%
viability, T/C [22]: 70%
viability, T/C [23]: 1.91%
viability, T/C [24]: 0.93%
viability, T/C [25]: 88.3%
viability, T/C [26]: 91.9%
viability, T/C [27]: 86.3%
viability, T/C [28]: 74.7%
viability, T/C [29]: 2.48%
viability, T/C [30]: 0.97%
viability, T/C [31]: 86.2%
viability, T/C [32]: 80.6%
viability, T/C [33]: 94.8%
viability, T/C [34]: 72.5%
viability, T/C [35]: 1.96%
viability, T/C [36]: 1.06%

Structure (SMILES): NC1c2ccccc2OC12CCN(c1cnc3c(N4CCCc5ncccc54)n[nH]c3n1)CC2 (stereo not given) + C=CC(=O)N1CCN(c2nc(OCC3CCCN3C)nc3c(F)c(-c4nc(N)cc(C)c4C(F)(F)F)c(Cl)cc23)C(C)C1
IC50 (second compound 0.00316 µM): > 10000 nM
IC50 (second compound 0.01 µM): 8900 nM
IC50 (second compound 0.0316 µM): 6880 nM
IC50 (second compound 0.1 µM): 5240 nM
IC50 (second compound 0.316 µM): 5890 nM
IC50 (second compound 1 µM): 9970 nM
viability, T/C [1]: 82.2%
viability, T/C [2]: 89.4%
viability, T/C [3]: 83.9%
viability, T/C [4]: 84.5%
viability, T/C [5]: 63.4%
viability, T/C [6]: 52.7%
viability, T/C [7]: 82.7%
viability, T/C [8]: 92.4%
viability, T/C [9]: 84.6%
viability, T/C [10]: 78.1%
viability, T/C [11]: 65.5%
viability, T/C [12]: 48.2%
viability, T/C [13]: 89.8%
viability, T/C [14]: 79.6%
viability, T/C [15]: 75.4%
viability, T/C [16]: 69.3%
viability, T/C [17]: 57.5%
viability, T/C [18]: 45.9%
viability, T/C [19]: 97.3%
viability, T/C [20]: 79.3%
viability, T/C [21]: 67.4%
viability, T/C [22]: 64.5%
viability, T/C [23]: 54.7%
viability, T/C [24]: 44.4%
viability, T/C [25]: 81.5%
viability, T/C [26]: 73.5%
viability, T/C [27]: 70.3%
viability, T/C [28]: 63.4%
viability, T/C [29]: 48.9%
viability, T/C [30]: 48.9%
viability, T/C [31]: 81.9%
viability, T/C [32]: 95.9%
viability, T/C [33]: 66.7%
viability, T/C [34]: 76.7%
viability, T/C [35]: 55.5%
viability, T/C [36]: 50.7%

The next lines start with results.

IC50 (second compound 0.00316 µM): > 10000 nM
IC50 (second compound 0.01 µM): > 10000 nM
IC50 (second compound 0.0316 µM): > 10000 nM
IC50 (second compound 0.1 µM): > 10000 nM
IC50 (second compound 0.316 µM): > 10000 nM
IC50 (second compound 1 µM): > 10000 nM
Structure (SMILES): Cc1nc(N2CCC3(CC2)COC(C)C3N)c(CO)nc1Sc1ccnc(N)c1Cl (stereo not given) + C=CC(=O)N1CCN(c2nc(OCC3CCCN3C)nc3c(F)c(-c4nc(N)cc(C)c4C(F)(F)F)c(Cl)cc23)C(C)C1
viability, T/C [1]: 111%
viability, T/C [2]: 98.5%
viability, T/C [3]: 90.6%
viability, T/C [4]: 86.9%
viability, T/C [5]: 92.4%
viability, T/C [6]: 93%
viability, T/C [7]: 94.8%
viability, T/C [8]: 79.3%
viability, T/C [9]: 84.4%
viability, T/C [10]: 93.3%
viability, T/C [11]: 83.9%
viability, T/C [12]: 68.5%
viability, T/C [13]: 91.2%
viability, T/C [14]: 92.9%
viability, T/C [15]: 88.3%
viability, T/C [16]: 70%
viability, T/C [17]: 80.7%
viability, T/C [18]: 65.8%
viability, T/C [19]: 99.7%
viability, T/C [20]: 87.6%
viability, T/C [21]: 85.7%
viability, T/C [22]: 86.9%
viability, T/C [23]: 79.2%
viability, T/C [24]: 60.2%
viability, T/C [25]: 84.9%
viability, T/C [26]: 75.9%
viability, T/C [27]: 80.5%
viability, T/C [28]: 93.9%
viability, T/C [29]: 79.4%
viability, T/C [30]: 61.4%
viability, T/C [31]: 87.3%
viability, T/C [32]: 90.8%
viability, T/C [33]: 98.8%
viability, T/C [34]: 92.6%
viability, T/C [35]: 78.8%
viability, T/C [36]: 62.2%

IC50 (second compound 0.00316 µM): 17.9 nM
IC50 (second compound 0.01 µM): 16.9 nM
IC50 (second compound 0.0316 µM): 16.1 nM
IC50 (second compound 0.1 µM): 16.6 nM
IC50 (second compound 0.316 µM): 14.4 nM
IC50 (second compound 1 µM): 13.1 nM
Structure (SMILES): Nc1ccn(C2OC(CO)C(O)C2(F)F)c(=O)n1 (stereo not given) + C=CC(=O)N1CCN(c2nc(OCC3CCCN3C)nc3c(F)c(-c4nc(N)cc(C)c4C(F)(F)F)c(Cl)cc23)C(C)C1
viability, T/C (second compound 0.00316 µM, first compound 0.00316 µM): 95.9%
viability, T/C (second compound 0.00316 µM, first compound 0.01 µM): 94.4%
viability, T/C [1]: 6.55%
viability, T/C [2]: 4.24%
viability, T/C [3]: 4.05%
viability, T/C [4]: 3.99%
viability, T/C (second compound 0.01 µM, first compound 0.00316 µM): 93.7%
viability, T/C (second compound 0.01 µM, first compound 0.01 µM): 83%
viability, T/C [7]: 10.8%
viability, T/C [8]: 4.22%
viability, T/C [9]: 4.2%
viability, T/C [10]: 4.01%
viability, T/C (second compound 0.0316 µM, first compound 0.00316 µM): 83.5%
viability, T/C (second compound 0.0316 µM, first compound 0.01 µM): 81.2%
viability, T/C [13]: 6.08%
viability, T/C [14]: 3.45%
viability, T/C [15]: 5.01%
viability, T/C [16]: 4.23%
viability, T/C (second compound 0.1 µM, first compound 0.00316 µM): 87.8%
viability, T/C (second compound 0.1 µM, first compound 0.01 µM): 84.7%
viability, T/C [19]: 6.15%
viability, T/C [20]: 4.69%
viability, T/C [21]: 4.71%
viability, T/C [22]: 3.18%
viability, T/C (second compound 0.316 µM, first compound 0.00316 µM): 84.9%
viability, T/C (second compound 0.316 µM, first compound 0.01 µM): 70.4%
viability, T/C [25]: 6.26%
viability, T/C [26]: 4.95%
viability, T/C [27]: 4.16%
viability, T/C [28]: 4.03%
viability, T/C (second compound 1 µM, first compound 0.00316 µM): 83.5%
viability, T/C (second compound 1 µM, first compound 0.01 µM): 63.4%
viability, T/C [31]: 6.51%
viability, T/C [32]: 3.92%
viability, T/C [33]: 4.72%
viability, T/C [34]: 5.35%
